Test results: ChEMBL document CHEMBL1156454, “Essential requirement for sphingosine kinase 2 in a sphingolipid apoptosis pathway activated by FTY720 analogues” (J Biol Chem, 2007)
The source made the active and inactive calls. The rule behind the calls is not given here.

Legend:
Splenocyte [1] = assay: Induction of apoptosis in mouse primary splenocytes assessed as cell death after 18 hrs; assay type: functional, cell-based
Jurkat [2] = assay: Induction of apoptosis in human Jurkat cells assessed as cell death after 18 hrs; assay type: functional, cell-based
Lymphocyte [3] = assay: Induction of apoptosis in MRL/MpJ-lpr/lpr mouse spleen lymphocytes assessed as increase in apoptotic cells in spleen at 1 mg/kg, ip by annexin V method; assay type: functional, organism-based; design: dose 1 mg/kg
Jurkat [4] = assay: Induction of apoptosis in human Jurkat cells assessed as PARP cleavage at 5 uM after 16 hrs; assay type: functional, cell-based
Jurkat [5] = assay: Inhibition of 2-amino-4-(4-heptyloxyphenyl)-2-methylbutanol-resistant human Jurkat SBR1 mutant cells proliferation after 18 hrs by MTT assay; assay type: functional, cell-based
Jurkat [6] = assay: Inhibition of 2-amino-4-(4-heptyloxyphenyl)-2-methylbutanol-resistant human Jurkat SBR2 mutant cells proliferation after 18 hrs by MTT assay; assay type: functional, cell-based
Jurkat [7] = assay: Inhibition of human 2-amino-4-(4-heptyloxyphenyl)-2-methylbutanol-resistant human Jurkat SBR3 mutant cells proliferation after 18 hrs by MTT assay; assay type: functional, cell-based
Jurkat [8] = assay: Inhibition of wild type human Jurkat cells after 18 hrs by MTT assay; assay type: functional, cell-based
Jurkat [9] = assay: Resistance index, ratio of IC50 for 2-amino-4-(4-heptyloxyphenyl)-2-methylbutanol-resistant human Jurkat SBR1 mutant cells to IC50 for human wild type Jurkat cells; assay type: functional
Jurkat [10] = assay: Resistance index, ratio of IC50 for 2-amino-4-(4-heptyloxyphenyl)-2-methylbutanol-resistant human Jurkat SBR2 mutant cells to IC50 for human wild type Jurkat cells; assay type: functional
Jurkat [11] = assay: Resistance index, ratio of IC50 for 2-amino-4-(4-heptyloxyphenyl)-2-methylbutanol-resistant human Jurkat SBR3 mutant cells to IC50 for human wild type Jurkat cells; assay type: functional
[12] = Cell viability of Sphk2-knock out mouse embryonic fibroblasts assessed as resistant cells after 18 hrs by propidium iodide exclusion assay; assay type: functional, cell-based; conditions: Fibroblast
Jurkat [13] = assay: Reversal of inhibition of mitochondrial function in human Jurkat cells after 18 hrs in presence of Z-VAD-fmk; assay type: functional, cell-based
Lymphocyte [14] = assay: Induction of apoptosis in MRL/MpJ-lpr/lpr mouse lymph node lymphocytes assessed as increase in apoptotic cells in lymph nodes at 1 mg/kg, ip by annexin V method; assay type: functional, organism-based; design: dose 1 mg/kg
Lymphocyte [15] = assay: Induction of apoptosis in MRL/MpJ-lpr/lpr mouse thymus lymphocytes assessed as increase in apoptotic cells in thymus at 1 mg/kg, ip by annexin V method; assay type: functional, organism-based; design: dose 1 mg/kg
Spleen = assay: Drug level in MRL/MpJ-lpr/lpr mouse spleen assessed as (R)-2-amino-4-(4-(heptyloxy)phenyl)-2-methylbutyl dihydrogen phosphate levels per mg of tissue at 1 mg/kg, ip after 1 hr; assay type: ADME, organism-based; design: dose 1 mg/kg, route intraperitoneal; conditions: in vivo
[16] = Drug level in MRL/Mpj-lpr/lpr mouse thymus assessed as (R)-2-amino-4-(4-(heptyloxy)phenyl)-2-methylbutyl dihydrogen phosphate levels per mg of tissue at 1 mg/kg, ip after 1 hr; assay type: ADME, organism-based; design: dose 1 mg/kg, route intraperitoneal; conditions: in vivo
Jurkat [17] = assay: Induction of apoptosis in human Jurkat SBR1 cells expressing Sphk1 after 18 hrs by MTT assay; assay type: functional, cell-based
Jurkat [18] = assay: Induction of apoptosis in human Jurkat SBR1 cells expressing Sphk2 after 18 hrs by MTT assay; assay type: functional, cell-based
Jurkat [19] = assay: Induction of apoptosis in human Jurkat SBR1 mutant cells assessed as activation of effector capsases after 18 hrs; assay type: functional, cell-based
Jurkat [20] = assay: Induction of apoptosis in human Jurkat cells assessed as activation of effector capsases after 18 hrs; assay type: functional, cell-based
Jurkat [21] = assay: Induction of apoptosis in human Jurkat cells assessed as increase in cytosolic calcium levels after 8 hrs; assay type: functional, cell-based
Splenocyte [22] = assay: Induction of apoptosis in Sphk1-knock out mouse primary splenocytes assessed as resistant cells after 18 hrs by propidium iodide exclusion assay; assay type: functional, cell-based
Splenocyte [23] = assay: Induction of apoptosis in Sphk2-knock out mouse primary splenocytes assessed as resistant cells after 18 hrs by propidium iodide exclusion assay; assay type: functional, cell-based
[24] = molecular target: Sphingosine kinase 1 (Homo sapiens) (UniProt Q9NYA1); assay: Inhibition of Sphk1 expressed in HEK293 cells; assay type: cell-based
Sequence of Sphingosine kinase 1 (Homo sapiens) (Q9NYA1 whole entry): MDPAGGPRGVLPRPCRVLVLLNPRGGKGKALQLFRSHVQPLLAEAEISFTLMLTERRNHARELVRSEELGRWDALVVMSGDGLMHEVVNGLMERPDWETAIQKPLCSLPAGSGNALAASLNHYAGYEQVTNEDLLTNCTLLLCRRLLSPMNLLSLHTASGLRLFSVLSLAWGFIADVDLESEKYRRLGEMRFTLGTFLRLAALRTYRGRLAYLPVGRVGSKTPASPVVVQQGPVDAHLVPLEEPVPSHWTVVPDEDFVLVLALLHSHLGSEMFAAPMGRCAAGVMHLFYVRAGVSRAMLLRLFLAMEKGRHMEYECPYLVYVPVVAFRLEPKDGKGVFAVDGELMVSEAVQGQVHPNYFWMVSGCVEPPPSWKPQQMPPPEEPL

IC50 (Jurkat [8]) [µM] | IC50 (Jurkat [5]) [µM] | IC50 (Jurkat [6]) [µM] | IC50 (Jurkat [7]) [µM] | Structure (SMILES) | Ratio IC50 (Jurkat [9]) | Ratio IC50 (Jurkat [10]) | Ratio IC50 (Jurkat [11]) | other results
2.01 | 3.48 | 2.88 | 3.38 | CCCCCCCCCCCCC/C=C/[C@@H](O)[C@@H](N)CO [SPHINGOSINE] | 1.7 | 1.4 | 1.7 | Activity [12]: inactive
3.75 | 6.57 | 5.29 | 4.12 | CCCCCCCCCCCCCC[C@@H](O)[C@@H](O)[C@@H](N)CO (single isomer, unassigned) [PHYTOSPHINGOSINE] | 1.8 | 1.4 | 1.1 | –
2.32 | 8.72 | 7.72 | 7.12 | CCCCCCCOc1ccc(CC[C@@](C)(N)CO)cc1 | 3.8 | 3.3 | 3.1 | Activity (Lymphocyte [3]): Active; Activity (Lymphocyte [14]): Active; Activity (Lymphocyte [15]): inactive; Activity (Spleen): < 0.2 pmol/mg; Activity [16]: < 0.2 pmol/mg; Activity (Jurkat [17]): Active; Activity (Jurkat [18]): Active; Activity (Jurkat [19]): inactive; Activity (Jurkat [20]): Active; Activity (Jurkat [4]): Active; Activity (Jurkat [21]): Active; Activity [12]: Active; Activity (Splenocyte [22]): inactive; Activity (Splenocyte [23]): Active
3.53 | 4.9 | 3.68 | 6.31 | CCCCCCCCCCCCCCC[C@@H](O)[C@@H](N)CO [DIHYDROSPINGOSINE] | 1.4 | 1.3 | 1.8 | –

Continued, compound first:

Structure (SMILES) | IC50 (Jurkat [8]) [µM] | IC50 (Jurkat [5]) [µM] | IC50 (Jurkat [6]) [µM] | IC50 (Jurkat [7]) [µM] | Ratio IC50 (Jurkat [9]) | Ratio IC50 (Jurkat [10]) | Ratio IC50 (Jurkat [11]) | other results
CCCCCCCOc1ccc(CC[C@](C)(N)CO)cc1 | – | – | – | – | – | – | – | Activity (Splenocyte [1]): inactive; Activity (Jurkat [2]): inactive; Activity (Lymphocyte [3]): Active; Activity (Jurkat [4]): inactive
COc1cc([C@@H]2c3cc4c(cc3[C@@H](O[C@@H]3O[C@@H]5CO[C@@H](C)O[C@H]5[C@H](O)[C@H]3O)[C@H]3COC(=O)[C@H]23)OCO4)cc(OC)c1O | – | – | – | – | – | – | – | Activity (Jurkat [5]): Active; Activity (Jurkat [6]): Active; Activity (Jurkat [7]): Active
CCCCCCCCc1ccc(CCC(N)(CO)CO)cc1 | – | – | – | – | – | – | – | Activity (Jurkat [13]): Active
CCCCCCCOc1ccc(CC[C@@](C)(N)COP(=O)(O)O)cc1 | – | – | – | – | – | – | – | Activity (Splenocyte [1]): inactive; Activity (Jurkat [8]): inactive; Activity [24]: inactive
